Source: ChEMBL document CHEMBL1201862, “PubChem BioAssay data set” (2004)
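48-hour exposure; five concentrations; linearly interpolated endpoints. Here, GI50 denotes the concentration required for 50% inhibition of growth.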 The source made the active and inactive calls. No stated cut-off is given here; in the data, active = GI50 up to about 1.1 µM and inactive = higher.

Legend:
Assay in all cases: NCI anticancer screen, dose series, 48 h
[1] = system: SNB-19
[2] = system: SK-OV-3
[3] = system: MOLT-4
[4] = system: T47D
[5] = system: M14
[6] = system: HT-29
[7] = system: HCC 2998
[8] = system: RXF 393
[9] = system: MDA-MB-435
[10] = system: COLO 205
[11] = system: SK-MEL-5
[12] = system: OVCAR-3
[13] = system: 786-0
[14] = system: HOP-92
[15] = system: UO-31
[16] = system: CAKI-1
[17] = system: Hs-578T
[18] = system: MDA-MB-231
[19] = system: HCT-15
[20] = system: HCT-116
[21] = system: SF-295
[22] = system: NCI/ADR-RES
[23] = system: RPMI-8226
[24] = system: SR
[25] = system: SF-268
[26] = system: NCI-H460
[27] = system: IGROV-1
[28] = system: CCRF-CEM
[29] = system: ACHN
[30] = system: A549
[31] = system: DU-145
[32] = system: NCI-H226
[33] = system: MCF7
[34] = system: KM12
[35] = system: SF-539
[36] = system: HL-60
[37] = system: SK-MEL-2
[38] = system: PC-3
[39] = system: Malme-3M
[40] = system: LOX IMVI
[41] = system: SK-MEL-28
[42] = system: TK-10
[43] = system: UACC-62
[44] = system: SN12C
[45] = system: OVCAR-8
[46] = system: NCI-H522
[47] = system: BT-549
[48] = system: U-251
[49] = system: A498
[50] = system: OVCAR-5
[51] = system: K562
[52] = system: HOP-62
[53] = system: MDA-N
[54] = system: UACC-257
[55] = system: NCI-H23
[56] = system: OVCAR-4
[57] = system: EKVX
[58] = system: SW-620
[59] = system: SNB-75

SMILES: CCN(CC)CCOc1ccc(N2Cc3cc(OC)c(OC)cc3C2=O)cc1
- GI50 [1]: > 100 µM (inactive)
- GI50 [2]: > 100 µM (inactive)
- GI50 [3]: > 100 µM (inactive)
- GI50 [4]: > 100 µM (inactive)
- GI50 [5]: > 100 µM (inactive)
- GI50 [6]: > 100 µM (inactive)
- GI50 [7]: > 100 µM (inactive)
- GI50 [8]: > 100 µM (inactive)
- GI50 [9]: > 100 µM (inactive)
- GI50 [10]: > 100 µM (inactive)
- GI50 [11]: > 100 µM (inactive)
- GI50 [12]: > 100 µM (inactive)
- GI50 [13]: > 100 µM (inactive)
- GI50 [14]: > 100 µM (inactive)
- GI50 [15]: < 0.01 µM (active)
- GI50 [16]: > 100 µM (inactive)
- GI50 [17]: > 100 µM (inactive)
- GI50 [18]: > 100 µM (inactive)
- GI50 [19]: > 100 µM
- GI50 [20]: > 100 µM (inactive)
- GI50 [21]: > 100 µM (inactive)
- GI50 [22]: > 100 µM (inactive)
- GI50 [23]: > 100 µM (inactive)
- GI50 [24]: > 100 µM (inactive)
- GI50 [25]: > 100 µM (inactive)
- GI50 [26]: > 100 µM (inactive)
- GI50 [27]: > 100 µM (inactive)
- GI50 [28]: > 100 µM (inactive)
- GI50 [29]: > 100 µM (inactive)
- GI50 [30]: > 100 µM (inactive)
- GI50 [31]: > 100 µM (inactive)
- GI50 [32]: > 100 µM (inactive)
- GI50 [33]: > 100 µM (inactive)
- GI50 [34]: > 100 µM (inactive)
- GI50 [35]: > 100 µM (inactive)
- GI50 [36]: > 100 µM (inactive)
- GI50 [37]: > 100 µM (inactive)
- GI50 [38]: > 100 µM (inactive)
- GI50 [39]: > 100 µM (inactive)
- GI50 [40]: > 100 µM (inactive)
- GI50 [41]: > 100 µM (inactive)
- GI50 [42]: > 100 µM (inactive)
- GI50 [43]: > 100 µM (inactive)
- GI50 [44]: > 100 µM (inactive)
- GI50 [45]: > 100 µM (inactive)
- GI50 [46]: > 100 µM (inactive)
- GI50 [47]: > 100 µM (inactive)
- GI50 [48]: > 100 µM (inactive)
- GI50 [49]: > 100 µM (inactive)
- GI50 [50]: > 100 µM (inactive)
- GI50 [51]: > 100 µM (inactive)
- GI50 [52]: > 100 µM (inactive)
- GI50 [53]: > 100 µM (inactive)
- GI50 [54]: > 100 µM (inactive)
- GI50 [55]: > 100 µM (inactive)
- GI50 [56]: > 100 µM (inactive)
- GI50 [57]: > 100 µM (inactive)
- GI50 [58]: > 100 µM (inactive)

SMILES: O=c1c2cc(I)ccc2nc(SCc2nnco2)n1Cc1ccccc1
- GI50 [1]: > 100 µM (inactive)
- GI50 [2]: > 100 µM (inactive)
- GI50 [3]: 0.1 µM (active)
- GI50 [4]: > 100 µM (inactive)
- GI50 [5]: > 100 µM (inactive)
- GI50 [6]: 60.5 µM (inactive)
- GI50 [7]: 96.2 µM (inactive)
- GI50 [8]: 58.1 µM (inactive)
- GI50 [9]: > 100 µM (inactive)
- GI50 [10]: > 100 µM (inactive)
- GI50 [11]: > 100 µM (inactive)
- GI50 [12]: > 100 µM (inactive)
- GI50 [13]: 35.7 µM (inactive)
- GI50 [59]: 56.5 µM (inactive)
- GI50 [14]: 35.6 µM (inactive)
- GI50 [15]: 1.39 µM (inactive)
- GI50 [16]: > 100 µM (inactive)
- GI50 [17]: 31.7 µM (inactive)
- GI50 [18]: 78.5 µM (inactive)
- GI50 [19]: > 100 µM
- GI50 [20]: > 100 µM (inactive)
- GI50 [21]: 98.2 µM (inactive)
- GI50 [22]: > 100 µM (inactive)
- GI50 [23]: > 100 µM (inactive)
- GI50 [24]: > 100 µM (inactive)
- GI50 [25]: > 100 µM (inactive)
- GI50 [26]: > 100 µM (inactive)
- GI50 [27]: 80.7 µM (inactive)
- GI50 [28]: 10.8 µM (inactive)
- GI50 [29]: > 100 µM (inactive)
- GI50 [30]: > 100 µM (inactive)
- GI50 [31]: > 100 µM (inactive)
- GI50 [32]: > 100 µM (inactive)
- GI50 [33]: 81.1 µM (inactive)
- GI50 [34]: > 100 µM (inactive)
- GI50 [35]: > 100 µM (inactive)
- GI50 [36]: 17.4 µM (inactive)
- GI50 [37]: 81.8 µM (inactive)
- GI50 [38]: > 100 µM (inactive)
- GI50 [40]: > 100 µM (inactive)
- GI50 [41]: > 100 µM (inactive)
- GI50 [42]: 87.9 µM (inactive)
- GI50 [43]: 73.8 µM (inactive)
- GI50 [44]: 49.1 µM (inactive)
- GI50 [45]: > 100 µM (inactive)
- GI50 [46]: 44 µM (inactive)
- GI50 [47]: > 100 µM (inactive)
- GI50 [48]: > 100 µM (inactive)
- GI50 [49]: 50.8 µM (inactive)
- GI50 [50]: > 100 µM (inactive)
- GI50 [52]: 98.4 µM (inactive)
- GI50 [53]: > 100 µM (inactive)
- GI50 [54]: > 100 µM (inactive)
- GI50 [55]: > 100 µM (inactive)
- GI50 [56]: > 100 µM (inactive)
- GI50 [57]: 29 µM (inactive)
- GI50 [58]: > 100 µM (inactive)

SMILES: COC(=O)[C@]12CC[C@H]3CN(C(=O)OCc4ccccc4)[C@H]([C@H]31)[C@H](c1ccco1)N2S(=O)(=O)c1ccc(C)cc1
- GI50 [1]: 34 µM (inactive)
- GI50 [2]: 52.1 µM (inactive)
- GI50 [3]: 21.8 µM (inactive)
- GI50 [4]: 27.6 µM (inactive)
- GI50 [5]: 17.5 µM (inactive)
- GI50 [6]: 20.6 µM (inactive)
- GI50 [7]: 19.5 µM (inactive)
- GI50 [8]: 18.2 µM (inactive)
- GI50 [9]: 23.3 µM (inactive)
- GI50 [10]: 19.8 µM (inactive)
- GI50 [11]: 16.5 µM (inactive)
- GI50 [12]: 19.1 µM (inactive)
- GI50 [13]: 17.5 µM (inactive)
- GI50 [14]: 12.8 µM (inactive)
- GI50 [15]: 20.9 µM (inactive)
- GI50 [16]: 28.8 µM (inactive)
- GI50 [17]: 73.5 µM (inactive)
- GI50 [18]: 35 µM (inactive)
- GI50 [19]: 15.4 µM
- GI50 [20]: 14.9 µM (inactive)
- GI50 [21]: 25.9 µM (inactive)
- GI50 [22]: 23.5 µM (inactive)
- GI50 [23]: 11.6 µM (inactive)
- GI50 [24]: 13.5 µM (inactive)
- GI50 [25]: 24.2 µM (inactive)
- GI50 [26]: 26.5 µM (inactive)
- GI50 [27]: 20.5 µM (inactive)
- GI50 [28]: 11.4 µM (inactive)
- GI50 [29]: 35.3 µM (inactive)
- GI50 [30]: 31.8 µM (inactive)
- GI50 [31]: 32.3 µM (inactive)
- GI50 [32]: 27.5 µM (inactive)
- GI50 [33]: 17.5 µM (inactive)
- GI50 [34]: 19.3 µM (inactive)
- GI50 [35]: 33.1 µM (inactive)
- GI50 [36]: 16.3 µM (inactive)
- GI50 [37]: 20.7 µM (inactive)
- GI50 [38]: 31 µM (inactive)
- GI50 [39]: 21.3 µM (inactive)
- GI50 [40]: 16.3 µM (inactive)
- GI50 [41]: 39.2 µM (inactive)
- GI50 [42]: 33.2 µM (inactive)
- GI50 [43]: 15 µM (inactive)
- GI50 [44]: 18.5 µM (inactive)
- GI50 [45]: 28.9 µM (inactive)
- GI50 [46]: 19.2 µM (inactive)
- GI50 [47]: 15.7 µM (inactive)
- GI50 [48]: 27.9 µM (inactive)
- GI50 [49]: 27.4 µM (inactive)
- GI50 [50]: 38.5 µM (inactive)
- GI50 [51]: 16.9 µM (inactive)
- GI50 [52]: 25.8 µM (inactive)
- GI50 [53]: 18.9 µM (inactive)
- GI50 [54]: 20.3 µM (inactive)
- GI50 [55]: 24.7 µM (inactive)
- GI50 [56]: 28.5 µM (inactive)
- GI50 [57]: 44.4 µM (inactive)
- GI50 [58]: 30.4 µM (inactive)
